Assay results as given in ChEMBL document CHEMBL3301361, “Experimental in vitro DMPK and physicochemical data on a set of publicly disclosed compounds”.
Converted amounts (≈) assume the structure as drawn.

What was measured:
in vitro [1] = details: human
physchem [2] = assay: physchem
physchem [3] = details: octan-1-ol/water
physchem [4] = details: pH 7.4 buffer
in vitro [5] = details: human, plasma
in vitro [6] = details: SD, HW or BN, rat, plasma
in vitro [7] = details: hepatocytes
in vitro [8] = details: Beagle, dog, plasma
in vitro [9] = details: human, hepatocytes

Row | SMILES | microsomal CLint (in vitro [1]; liver microsomes) [µL/min/mg] | pKa (physchem [2]) | logD (physchem [3]; pH 7.4, LogD7.4) | further results
1 | CCOC(=O)N1CCC(Nc2cc(OC)ccn2)CC1 | 4 | 7.2 |  | 
2 | COc1ccnc(NC2CCN(C(=O)c3ccccc3)CC2)c1 | < 3 | 6.85 | 2.06 | 
3 | CC(C)(C)NC(=O)[C@@H]1C[C@@H]2CCCC[C@@H]2CN1C[C@@H](O)[C@H](Cc1ccccc1)NC(=O)[C@H](CC(N)=O)NC(=O)c1ccc2ccccc2n1 |  | 7.14 |  | solubility thermodynamic (physchem [4]): 36.3 µM (≈ 24.4 µg/mL); fraction unbound at 5 h (in vitro [5]; PPB): 0.0114; fraction unbound at 5 h (in vitro [6]): 0.0048
4 | Cc1cc(N)nc(CCNC(=O)c2ccc(C#N)cc2)c1 |  | 7.1 | 1.62 | solubility thermodynamic (physchem [4]): 64.6 µM (≈ 18.1 µg/mL)
5 | C[C@H]1CN=C(N)c2sccc2O1 |  | 11 |  | microsomal CLint (in vitro [1]; microsomes): 7 µL/min/mg
6 | O=C(O)COc1ccc(C(F)(F)F)cc1CN1CCN(C(=O)c2ccccc2)CC1 | 4.7 | 6.9 |  | hepatocyte CLint (in vitro [7]): < 3 µL/min/1e6 cells
7 | N#Cc1ccc(Cl)cc1O[C@H](CCN)c1ccccc1 | 4 | 10.3 | 0.76 | 
8 | N#Cc1ccc(C(=O)N2CCC3(CC2)N=C(N)c2c(F)ccc(F)c2N3)cc1 |  | 8.15 | 0.86 | fraction unbound at 5 h (in vitro [5]; PPB): 0.285
9 | Nc1ccc(OCC(=O)O)c(-c2ccccc2)c1 | < 3 | 5.1 |  | 
10 | CCC(CCNC)Oc1cc(Cl)ccc1C#N (configuration not stated) | < 3 | 10.1 | 0.38 | 
11 | CNCC[C@@H](Oc1cc(Cl)ccc1C#N)c1ccccc1 |  | 9.9 |  | hepatocyte CLint (in vitro [7]): > 150 µL/min/1e6 cells
12 | CNCC[C@@H](Oc1cc(C(F)(F)F)ccc1C#N)c1ccccc1 |  | 10.4 | 1.3 | microsomal CLint (in vitro [1]; microsomes): < 3 µL/min/mg
13 | CNCC[C@@H](Oc1cc(OC)ccc1C#N)c1ccccc1 | 26 | 10.2 | 0.87 | hepatocyte CLint (in vitro [7]): 142 µL/min/1e6 cells
14 | CN(C)CCN1CCN(c2cc(C(=O)NC[C@H]3CC[C@H](CNC(=O)OC(C)(C)C)CC3)c3ccccc3n2)CC1 |  |  |  | fraction unbound at 5 h (in vitro [8]): 0.0293
15 | Cc1cc(-c2ccc(Cl)c(C(=O)NCC3(O)CCCCCC3)c2)nn1C[C@H](O)CN | < 3 | 8.6 | 0.57 | hepatocyte CLint (in vitro [7]): < 3 µL/min/1e6 cells; fraction unbound at 5 h (in vitro [5]; PPB): 0.304; fraction unbound at 5 h (in vitro [6]): 0.309; hepatocyte CLint (in vitro [9]): < 3 µL/min/1e6 cells
16 | CC(=O)Nc1ccc(CNc2[nH]nc3ccnc(Oc4ccccc4)c23)cc1 | 12 | 3.2 | 3.03 | 
17 | CCCCc1nc2c(N)nc3ccccc3c2n1CC(C)C | < 3 | 7.3 | 3.82 | fraction unbound at 5 h (in vitro [5]; PPB): 0.062; fraction unbound at 5 h (in vitro [6]): 0.0307
18 | Cc1c(CC(=O)O)c2cc(F)ccc2n1S(=O)(=O)c1ccc(S(C)(=O)=O)cc1 |  |  | -0.44 | fraction unbound at 5 h (in vitro [8]): 0.0521
19 | NC1=Nc2ccccc2Sc2cccc(F)c21 |  | 6.5 |  | fraction unbound at 5 h (in vitro [5]; PPB): 0.0568; hepatocyte CLint (in vitro [9]): 13.2 µL/min/1e6 cells
20 | NC1=Nc2ccccc2Sc2ccccc21 |  | 7.2 |  | hepatocyte CLint (in vitro [9]): 7.94 µL/min/1e6 cells
21 | O=C(CN1C2=NCCN2c2ccccc21)c1ccc(Cl)cc1 |  | 9.1 | 2.62 | microsomal CLint (in vitro [1]; microsomes): 4 µL/min/mg; fraction unbound at 5 h (in vitro [5]; PPB): 0.339
22 | COc1cccc(C(=O)NCCN2CCC(Oc3ccc(Cl)c(Cl)c3)CC2)c1 | 9 | 7.4 |  | solubility thermodynamic (physchem [4]): 9.5 µM (≈ 4.02 µg/mL); fraction unbound at 5 h (in vitro [5]; PPB): 0.0008
23 | COc1ccc(C2(c3cccc(-c4cncnc4)c3)N=C(C)C(N)=N2)cc1C (configuration not stated) |  | 5.83 |  | fraction unbound at 5 h (in vitro [5]; PPB): 0.062; fraction unbound at 5 h (in vitro [6]): 0.271
24 | COc1ccc(NC(=O)c2ccc(Cn3ccnn3)c3ccccc23)c(C(=O)NCC2CCOCC2)n1 |  |  |  | fraction unbound at 5 h (in vitro [8]): 0.028
25 | O=C(NCC12CC3CC(CC(C3)C1)C2)c1cc(CC2CCNCC2)ccc1Cl |  | 10.1 | 1.49 | fraction unbound at 5 h (in vitro [5]; PPB): 0.0872
26 | CC(C)c1nc2ccc(-c3ccc(F)cc3)cc2c(=O)n1C[C@H]1CCCN(C(C)C)C1 |  | 9.91 | 3.6 | microsomal CLint (in vitro [1]; microsomes): 12.9 µL/min/mg; hepatocyte CLint (in vitro [7]): 29.5 µL/min/1e6 cells; solubility thermodynamic (physchem [4]): 537 µM (≈ 226 µg/mL)

Row | SMILES | microsomal CLint (in vitro [1]; liver microsomes) [µL/min/mg] | pKa (physchem [2]) | logD (physchem [3]; pH 7.4, LogD7.4) | further results
27 | Cc1nc2ccc(-c3ccc(Cl)cc3)cc2c(=O)n1C[C@H]1CCCN(C(C)C)C1 |  | 10.1 | 3.3 | microsomal CLint (in vitro [1]; microsomes): < 3 µL/min/mg; hepatocyte CLint (in vitro [7]): 3.8 µL/min/1e6 cells
28 | C[C@H](CO)Nc1nc(SCc2cccc(F)c2F)nc2nc(N)cnc12 | 12 | 4.2 | 2.89 | fraction unbound at 5 h (in vitro [5]; PPB): 0.0447
29 | O=S(=O)(c1ccccc1)N1CCN(Cc2ccccc2)CC1 | 64 | 5.6 |  | hepatocyte CLint (in vitro [7]): > 150 µL/min/1e6 cells
30 | Nc1nc2ccccc2[nH]1 | < 3 | 7.2 |  | 
31 | COc1ccc(OC)c(CNc2[nH]nc3cccc(Oc4ccccc4)c23)c1 | 11 | 3.8 |  | 
32 | CON(C)C(=O)c1c(Cn2c(C)nc(Cl)c2Cl)sc2c1c(=O)n(C)c(=O)n2CC(C)C |  | 2.7 | 2.23 | solubility thermodynamic (physchem [4]): 513 µM (≈ 250 µg/mL)
33 | C[C@H](CO)Nc1nc(SCc2cccc(Cl)c2F)nc2[nH]c(=O)sc12 |  |  | 3.53 | solubility thermodynamic (physchem [4]): 1 µM (≈ 0.401 µg/mL); fraction unbound at 5 h (in vitro [8]): 0.0005
34 | N#Cc1ccc(C(=O)N2CCC3(CC2)N=C(N)c2c(F)ccc(F)c2N3)cn1 |  | 8.4 | 0.79 | fraction unbound at 5 h (in vitro [5]; PPB): 0.134
35 | O=C(NCC12CC3CC(CC(C3)C1)C2)c1cc(OCCCNCCCO)ccc1Cl | 27 | 9.5 | 1.41 | 
36 | Cc1ccc(C(=O)N2CC3CNCC(C2)O3)cc1NC(=O)CC12CC3CC(CC(C3)C1)C2 |  | 7.18 | 2.12 | microsomal CLint (in vitro [1]; microsomes): 71.2 µL/min/mg; hepatocyte CLint (in vitro [7]): 16.2 µL/min/1e6 cells
37 | O=C(NCC12CC3CC(CC(C3)C1)C2)c1ccnc(N2CCNCC2)c1Cl | 73 | 8.7 |  | hepatocyte CLint (in vitro [7]): 7.2 µL/min/1e6 cells
38 | CCCSc1nc(N)c2ncn([C@@H]3O[C@H](CO)[C@@H](O)[C@H]3O)c2n1 |  |  |  | fraction unbound at 5 h (in vitro [5]; PPB): 0.483; fraction unbound at 5 h (in vitro [8]): 0.591
39 | CC(C)Cn1c(=O)n(C)c(=O)c2c(SCCCO)n(Cc3cccc4ccccc34)cc21 |  |  | 4.36 | fraction unbound at 5 h (in vitro [8]): 0.0034
40 | CC(NC(C)(C)C)C(=O)c1cccc(Cl)c1 (configuration not stated) [BUPROPION] |  | 8.4 |  | microsomal CLint (in vitro [1]; microsomes): 12 µL/min/mg; hepatocyte CLint (in vitro [7]): 72.4 µL/min/1e6 cells; fraction unbound at 5 h (in vitro [5]): 0.54; logD (physchem [3]; pH 7.4): 2.12
41 | CN(C)CCC=C1c2ccccc2COc2ccccc21 [DOXEPIN] |  | 8.5 | 2.15 | 
42 | CCc1cc(C(N)=S)ccn1 [ETHIONAMIDE] |  | 4.4 | 1.52 | fraction unbound at 5 h (in vitro [6]): 0.54
43 | O=C(CCCN1CCC(O)(c2ccc(Cl)cc2)CC1)c1ccc(F)cc1 [HALOPERIDOL] |  | 8.75 | 2.67 | solubility thermodynamic (physchem [4]): 50.1 µM (≈ 18.8 µg/mL); fraction unbound at 5 h (in vitro [6]): 0.186
44 | CC12CC3CC(C)(C1)CC(N)(C3)C2 [MEMANTINE] |  | 10.7 | 0.06 | 
45 | Cc1ncc([N+](=O)[O-])n1CCO [METRONIDAZOLE] |  | 2.51 | -0.11 | 
46 | CCCc1nc(C(C)(C)O)c(C(=O)O)n1Cc1ccc(-c2ccccc2-c2nnn[nH]2)cc1 [OLMESARTAN] |  |  |  | fraction unbound at 5 h (in vitro [8]): 0.0119
47 | C=CCOc1ccccc1OCC(O)CNC(C)C (configuration not stated) [OXPRENOLOL] |  | 9.69 | 0.2 | 
48 | CNC(=C[N+](=O)[O-])NCCSCc1ccc(CN(C)C)o1 [RANITIDINE] |  |  | -0.95 | fraction unbound at 5 h (in vitro [8]): 0.711
49 | CCOCc1nc2c(N)nc3ccccc3c2n1CC(C)(C)O [RESIQUIMOD] |  | 7.1 | 1.69 | solubility thermodynamic (physchem [4]): 417 µM (≈ 131 µg/mL); fraction unbound at 5 h (in vitro [6]): 0.574
50 | Cc1nc2n(c(=O)c1CCN1CCC(c3noc4cc(F)ccc34)CC1)CCCC2 [RISPERIDONE] |  | 8.49 |  | fraction unbound at 5 h (in vitro [6]): 0.0544; logD (physchem [3]; pH 7.4): 2.05
51 | CC(C)(C)c1ccc(C(O)CCCN2CCC(C(O)(c3ccccc3)c3ccccc3)CC2)cc1 (configuration not stated) [TERFENADINE] |  | 8.8 | 3.99 | solubility thermodynamic (physchem [4]): 5.4 µM (≈ 2.55 µg/mL); fraction unbound at 5 h (in vitro [5]; PPB): 0.0084
